Reference: US7655392B2, “Quenching methods for red blood cell inactivation process” (priority 2004, dated 2010)
Values joined by “and” are separate entries in the source; they are usually repeats but may differ in a detail not shown here. Equal values may be shown once.

Legend:
[1] = test system: Yersinia enterocolitica; test: Inactivation of Yersinia enterocolitica in RBC (colony count); format: cell-based
[2] = test system: Human Leukocyte Genomic DNA; test: PIC-1 adduct frequency on leukocyte genomic DNA (14C-labelled PIC-1); format: biochemical; conditions: 20 h RT
Text: The quenching methods of the invention can also be compared to existing methods by determining the level of modification of nucleic acids in a sample. Typically, a red blood cell composition may contain leukocytes, and the nucleic acid from the leukocytes can be isolated. A pathogen inactivating compound having a radioactive isotope that, upon reaction of the compound with nucleic acid, will remain bound to the nucleic acid. This can be used to assess the amount of compound reacted with the nucleic acid for a variety of quenching methods, and provides a measure that can be directly correlated to expected leukocyte inactivation. The number of adducts formed per 1,000 nucleic acid base pairs can be used as a model to assess the expected impact of the various methods on pathogen inactivation. Alternatively, a suitable amount of a pathogen can be added to a red blood cell composition and the nucleic acid of the pathogen can be isolated after treatment. However, in this case the sample needs to be leukoreduced such that the levels of any residual leukocytes will not interfere with the measurement of pathogen nucleic acid.
The PIC-1 used included radiolabeled PIC-1, where the reactive group included a ^14C label (ViTrax, Inc., Placentia, Calif.). The specific activity of the PIC-1 used was […]. All samples were incubated at room temperature for 20 hours. After the incubation, 20 mL of RBC were diluted with a 20 mL volume of PBS and 20 mL of the mixture were added to each of two tubes containing 10 mL of Ficoll. The suspension was then centrifuged at 400×g for 30 minutes. The white blood cell portion was separated and the centrifuge step repeated after adding another 20 mL of PBS. The pellets obtained were combined and the combined pellet was resuspended in 5 mL Lysis buffer (100 mM NaCl, 10 mM Tris HCl, 25 mM EDTA, 5% SDS, 0.1 mg/mL Proteinase K, Sigma, St. Louis, Mo.) and was incubated at 50° C. for at least two hours. The resulting solution was then extracted with 5 mL of phenol:chloroform:isoamyl alcohol […], followed by 5 mL of chloroform, and then 5 mL of ether. The genomic DNA was isolated in the aqueous layer and precipitated by addition of 0.5 mL of 3 M NaOAc, 10 mL of 100% ethanol, followed by incubation of the final mixture in a dry ice/ethanol bath. The DNA was isolated by centrifugation at 6,000×g for 10′. The supernatant was removed, and the pellet air-dried and resuspended in 1 mL of TE buffer (100 mM Tris HCl, 1 mM EDTA, pH=7.4) The amount of DNA isolated was quantified by UV absorption at 260 nm and the amount of PIC-1 adducts was quantified by liquid scintillation counting (Perkin Elmer-Wallac, Winspectral 1414 Liquid Scintillation Counter, Shelton, Conn.) of the solution of DNA, using the specific activity of the PIC-1 to assess the molar ratio of PIC-1 to DNA base pairs. […] Glutathione is indicated as “GSH” and cysteine as “Cys” in the table, as well as elsewhere herein. The determination of adduct frequency was used as a surrogate measurement for the inactivation of leukocytes. It is known that under the standard pathogen inactivation conditions, leukocytes are inactivated to the level of detection of a limiting dilution assay, which corresponds to 5.3 log of inactivation. The mechanism of inactivation is through formation of adducts on the genomic nucleic acids. […] Similar studies could be done with a suitable pathogen using leukoreduced red blood cells in order to assess the binding to the pathogen nucleic acid under various conditions.

[3] = test system: leukocytes; conditions: standard pathogen inactivation conditions; cited from earlier work
[4] = test system: Staphylococcus epidermidis; test: Inactivation of Staphylococcus epidermidis in RBC (colony count); conditions: for Change in Log titer: initial RBC titer 6.5
Experimental: Whole blood (Blood Source, Sacramento, Calif.) was used to prepare a red blood cell (RBC) composition by centrifuging to provide packed RBC (34 mL of approximately 90% hematocrit), then adding 17 mL Erythrosol to a hematocrit of approximately 60%. Erythrosol is a red blood cell additive (Baxter Healthcare Corp., Deerfield, Ill.) that may be prepared by combining sodium citrate dihydrate (7.82 g); sodium acid phosphate dihydrate (0.73 g); sodium phosphate dihydrate (3.03 g); adenine (0.22 g); mannitol (7.74 g); and glucose (9 g) in 1 liter of distilled water. The bacterial preparation was then added ( 1/100th of the total volume) to the RBC/Erythrosol to provide contaminated RBC. The contaminated RBC was divided into several samples and treated according to Table 2, where PIC-1 is β-alanine, N-(acridin-9-yl), 2-[bis(2-chloroethyl)amino]ethyl ester. The PIC-1 and glutathione (Aldrich, St. Louis, Mo.) were dissolved in a solution of 8% dextrose monohydrate at about 15× the desired concentration in the final red blood cell composition when added together, or 30× when added separately. […] For separate addition using 20 mM neutralized glutathione, PIC-1 is prepared by dissolving 7.6 mg in 2.5 mL of 8% dextrose, glutathione is prepared by dissolving 460 mg in 1.9 mL of 8% dextrose and mixing with 0.6 mL of 5N NaOH, then adding 165 μL of each solution to 4.67 mL RBC in the appropriate order. Following treatment, the samples were incubated for 2 hours, and 100 μL of each was serially diluted and plated on LB plates. These were incubated overnight at 37° C. in order to assess bacterial growth. The bacterial titer was determined by counting colonies on the plates and based on the dilution of the plate, the titer was determined. For example, with 10-fold serial dilutions, 30 colonies counted on the 5th dilution of the original solution, where 0.1 mL are plated, would indicate an initial titer of (30×10^5)/0.1=3×10^7, or 7.47 log. […] Note that for most samples in Table 2A the PIC-1 and glutathione were formulated together. […] The study was repeated with sequential addition of the two components, as indicated in Table 2B (time delay of 0 indicates they were added in the same solution).
Additional studies were done using S. epidermidis, where the overnight culture was used without dilution. […] PIC-1 is at 0.2 mM in all samples.
For these samples, the NaOH stock was prepared at 10N and appropriate volumes of the various components were used following the procedures above. Standard conditions and/or 20 mM neutralized glutathione (GSH) were run for comparison.

[5] = 0.2 mM PIC-1, 2 mM acidic glutathione (0 eq base), no delay
[6] = 20 mM cysteine+1 eq base, then 0.2 mM PIC-1 after 10 min
[7] = 20 mM cysteine+2 eq base, then 0.2 mM PIC-1 after 10 min
[8] = 20 mM glutathione+2 eq base, then 0.2 mM PIC-1 after 10 min
[9] = 20 mM GSH neutralized with 2 eq, 0.2 mM PIC-1 10 min later
[10] = 20 mM each neut. GSH (2 eq) and Cys (1 eq), 0.2 mM PIC-1 10 min later
[11] = 0.2 mM PIC-1, then 20 mM glutathione+2 eq base after 1 min
[12] = 0.2 mM PIC-1, then 20 mM glutathione+2 eq base after 5 min
[13] = 0.2 mM PIC-1, then 20 mM glutathione+2 eq base after 10 min
[14] = 0.2 mM PIC-1, then 20 mM glutathione+2 eq base after 20 min
[15] = 0.2 mM PIC-1 and 2 mM glutathione, 0 eq base, simultaneous
[16] = 0.2 mM PIC-1 and 20 mM glutathione, 0 eq base, simultaneous
[17] = 20 mM glutathione+2 eq base, then 0.2 mM PIC-1 after 1 min
[18] = Table 5C: 0.2 mM PIC-1+2 mM GSH, 0 eq base, no delay
[19] = Table 5C: 5 mM Cys+1 eq base, then 0.2 mM PIC-1 after 10 min
[20] = Table 5C: 10 mM Cys+1 eq base, then 0.2 mM PIC-1 after 10 min
[21] = Table 5C: 20 mM Cys+1 eq base, then 0.2 mM PIC-1 after 10 min
[22] = Table 5C: 20 mM GSH+2 eq base, then 0.2 mM PIC-1 after 10 min
[23] = Table 5C: […] Cys+1 eq base, then 0.2 mM PIC-1 after 10 min

O=C(CCNc1c2ccccc2nc2ccccc12)OCCN(CCCl)CCCl [PIC-1]
Log Y. enterocolitica reduction [1, 5]: 8.49 Log
Log Y. enterocolitica titer [1, 5]: 0.00 Log
Log Y. enterocolitica reduction [1, 6]: 4.04 Log
Log Y. enterocolitica titer [1, 6]: 4.45 Log
Log Y. enterocolitica reduction [1, 7]: 5.79 Log
Log Y. enterocolitica titer [1, 7]: 2.70 Log
Log Y. enterocolitica reduction [1, 8]: 5.95 Log
Log Y. enterocolitica titer [1, 8]: 2.54 Log
reduction of log inactivation relative to the standard condition ([1]; 20 mM neutralized cysteine or neutralized glutathione, 0.2 mM PIC-1): about 2.5 log
Adduct frequency (average number of base pairs between adducts) ([2]; 0.2 mM PIC-1, 2 mM acidic GSH): 44 and 29
Adducts per kbp ([2]; 0.2 mM PIC-1, 2 mM acidic GSH): 23 and 34
Adduct frequency (average number of base pairs between adducts) ([2]; 0.2 mM PIC-1, no quencher): 36 and 35
Adducts per kbp ([2]; 0.2 mM PIC-1, no quencher): 28
Adduct frequency (average number of base pairs between adducts) [2, 9]: 27 and 28
Adducts per kbp [2, 9]: 37 and 36
Adduct frequency (average number of base pairs between adducts) [2, 10]: 33
Adducts per kbp [2, 10]: 30
leukocyte inactivation (level of detection of limiting dilution assay) [3]: 5.3 log
Log S. epidermidis reduction [4, 11]: 6.70 Log
Log S. epidermidis titer [4, 11]: −0.08 Log
Log S. epidermidis reduction [4, 12]: 6.70 Log
Log S. epidermidis titer [4, 12]: −0.08 Log
Log S. epidermidis reduction [4, 13]: 6.70 Log
Log S. epidermidis titer [4, 13]: −0.08 Log
Log S. epidermidis reduction [4, 14]: 6.70 Log
Log S. epidermidis titer [4, 14]: −0.08 Log
Log S. epidermidis reduction [4, 15]: 6.70 Log
Log S. epidermidis titer [4, 15]: −0.08 Log
Log S. epidermidis reduction [4, 16]: 0.22 Log
Log S. epidermidis titer [4, 16]: 6.40 Log
Log S. epidermidis reduction [4, 17]: 6.10 Log
Log S. epidermidis titer [4, 17]: 0.52 Log
Log S. epidermidis reduction [4, 8]: 5.92 Log
Log S. epidermidis titer [4, 8]: 0.70 Log
inactivation of S. epidermidis ([4]; 20 mM neutralized glutathione as quencher, 0.2 mM PIC-1): not significantly reduced
Log S. epidermidis reduction [4, 18]: 7.2 Log
Log S. epidermidis titer [4, 18]: 0 Log
Log S. epidermidis reduction [4, 19]: 7.2 Log
Log S. epidermidis titer [4, 19]: 0 Log
Log S. epidermidis reduction [4, 20]: 4.9 Log
Log S. epidermidis titer [4, 20]: 2.3 Log
Log S. epidermidis reduction [4, 21]: 4.0 Log
Log S. epidermidis titer [4, 21]: 3.2 Log
Log S. epidermidis reduction [4, 22]: 7.2 Log
Log S. epidermidis titer [4, 22]: 0 Log
Log S. epidermidis reduction [4, 23]: 7.2 Log
Log S. epidermidis titer [4, 23]: 0 Log
Change in Log titer ([4]; 2 mM GSH, 1 eq. base, 0.2 mM PIC-1): 6.5 Log
Change in Log titer ([4]; 2 mM GSH, 2 eq. base, 0.2 mM PIC-1): 6.5 Log
Change in Log titer ([4]; 2 mM GSH, no added base, 0.2 mM PIC-1): 6.5 Log
Change in Log titer ([4]; 5 mM GSH, 1 eq. base, 0.2 mM PIC-1): 6.5 Log
Change in Log titer ([4]; 5 mM GSH, 2 eq. base, 0.2 mM PIC-1): 6.5 Log
Change in Log titer ([4]; 5 mM GSH, no added base, 0.2 mM PIC-1): 6.5 Log
Change in Log titer ([4]; 10 mM GSH, 1 eq. base, 0.2 mM PIC-1): 6.5 Log
Change in Log titer ([4]; 10 mM GSH, 2 eq. base, 0.2 mM PIC-1): 6.5 Log
Change in Log titer ([4]; 10 mM GSH, no added base, 0.2 mM PIC-1): 2.9 Log
Change in Log titer ([4]; 20 mM GSH, 1 eq. base, 0.2 mM PIC-1): 6.5 Log
Change in Log titer ([4]; 20 mM GSH, 2 eq. base, 0.2 mM PIC-1): 6.5 Log
Change in Log titer ([4]; 20 mM GSH, no added base, 0.2 mM PIC-1): 2.5 Log
